The results in this text go back to patent US8119647B2, “Fused pyrimidineone compounds as TRPV3 modulators” (Glenmark Pharmaceuticals S.A., priority 2008, dated 2012).

Molecules are shown by their SMILES. Where two headings read alike, the source gives them in different places.

The target in this assay is T1, Human TRPV3 (Homo sapiens, UniProt Q8NET8).
T1 construct: expressed in transfected cells; host or cells: CHO cells (G-418 selection)
T1 sequence (Q8NET8 1-790): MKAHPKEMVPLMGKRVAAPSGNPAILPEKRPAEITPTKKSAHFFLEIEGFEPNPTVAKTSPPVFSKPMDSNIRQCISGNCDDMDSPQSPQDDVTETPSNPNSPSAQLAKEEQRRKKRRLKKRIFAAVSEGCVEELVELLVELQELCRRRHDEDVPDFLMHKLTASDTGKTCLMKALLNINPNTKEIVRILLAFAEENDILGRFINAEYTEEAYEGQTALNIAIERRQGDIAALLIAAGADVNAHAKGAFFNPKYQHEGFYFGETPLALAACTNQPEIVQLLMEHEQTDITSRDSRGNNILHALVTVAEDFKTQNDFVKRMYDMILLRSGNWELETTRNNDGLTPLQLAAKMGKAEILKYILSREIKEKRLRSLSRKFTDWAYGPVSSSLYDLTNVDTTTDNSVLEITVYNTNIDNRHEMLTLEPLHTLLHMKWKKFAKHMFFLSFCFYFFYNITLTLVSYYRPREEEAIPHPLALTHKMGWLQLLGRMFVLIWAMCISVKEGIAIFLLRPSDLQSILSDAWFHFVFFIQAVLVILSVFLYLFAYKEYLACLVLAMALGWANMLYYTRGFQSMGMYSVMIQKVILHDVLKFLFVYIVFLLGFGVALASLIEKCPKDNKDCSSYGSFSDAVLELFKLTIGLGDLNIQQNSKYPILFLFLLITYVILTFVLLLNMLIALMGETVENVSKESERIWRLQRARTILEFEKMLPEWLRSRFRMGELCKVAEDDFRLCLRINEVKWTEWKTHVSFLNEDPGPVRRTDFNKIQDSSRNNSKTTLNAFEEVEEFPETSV
Description: Screening for TRPV3 antagonist using the 45Calcium uptake assay (inhibition of 2-APB induced cellular uptake of radioactive calcium). It is filed as cell-based. Conditions: for Percentage inhibition at 1.0 μM / inhibition at 1 µM: 1.0 μM test compound; for inhibition at 1 µM: read-out: Percentage inhibition at 1.0 μM; for inhibition at 10 µM: read-out: Percentage inhibition at 10.0 μM; for IC50: class symbols. The source says: The illustrative examples of the present invention are screened for TRPV3 activity according to a modified procedure described in Tóth, A., Kedei, N., Wang, Y. and Blumberg, P. M. Life Sciences (2003), 73, 487-498. The screening of the compounds can be carried out by other methods and procedures known to a person skilled in the art. Such screening methods may be found in (a) Hu, H.-Z. et al. J. Biol. Chem. (2004), 279, 35741-35747; (b) Smith, G. D. et al. Nature (2002), 418, 186-190; (c) Peier, A. M. et al. Science (2002), 296, 2046-2049.
Screening for TRPV3 Antagonist Using the ^45Calcium Uptake Assay:
The inhibition of TRPV3 receptor activation was followed as inhibition of 2-aminoethoxydiphenylborate (2-APB) induced cellular uptake of radioactive calcium. Test compounds were dissolved in dimethyl sulfoxide (DMSO) to prepare 20 mM stock solution and then diluted using plain medium with DMEM/F-12 containing 1.8 mM CaCl2 to get desired concentration. Final concentration of DMSO in the reaction was 0.5% (v/v). Human TRPV3 expressing CHO cells were grown in DMEM/F-12 medium with 10% FBS, 1% penicillin-streptomycin solution, 400 μg/ml of G-418. Cells were seeded 24 h prior to the assay in 96 well plates so as to get ˜50,000 cells per well on the day of experiment. Cells were treated with test compounds for 10 minutes followed by addition of 2-APB at a final concentration of 500 μM and 5 μCi/ml ^45Ca^+2 for 4 minutes. Cells were washed and lysed using buffer containing 1% Triton X-100, 0.1% deoxycholate and 0.1% SDS. Radioactivity in the lysate was measured in Packardt Top count after addition of liquid scintillant. Concentration response curves were plotted as a % of maximal response obtained in the absence of test antagonist. IC50 value was calculated from concentration response curve by nonlinear regression analysis using GraphPad PRISM software.
Percentage inhibition at concentrations of 1.0 μM and 10.0 μM are given in the table along with IC50 (nM) values for selected examples.

Where [1] appears, read: human TRPV3 expressing CHO cells, 2-APB 500 μM.
Setting [2] is: 10.0 μM test compound, human TRPV3 expressing CHO cells, 2-APB 500 μM.

In the case of `COc1cccc(/C=C/c2nc3sccn3c(=O)c2-c2ccc(C#N)cc2)c1OCc1ccccn1` [Example 21], the “Percentage inhibition at 10.0 μM” value is given as 11.60%. Also, under setting [1], the “Percentage inhibition at 1.0 μM” value was 14.88%.

Consider `COc1cccc(/C=C/c2nc3sccn3c(=O)c2-c2ccc(C#N)cc2)c1OCCCC#N` [Example 22, 4-{7-[(E)-2-{2-(3-Cyanopropoxy)-3-(methoxyphenyl)-1-ethenyl]}-5-oxo-5H-[1,3]-thiazolo[3,2-a]pyrimidin-6-yl}benzonitrile], for which, under setting [1], the “Percentage inhibition at 1.0 μM” value is given as 16.1%. The “Percentage inhibition at 10.0 μM” value under setting [2] is 24.5%.

As for `N#Cc1ccc(-c2c(/C=C/c3cccnc3)nc3sccn3c2=O)cc1` [Example 23, 4-{5-Oxo-7-[(E)-2-(3-pyridyl)-1-ethenyl]-5H-[1,3]thiazolo[3,2-a]pyrimidin-6-yl}-benzonitrile], the inhibition at 1 µM under setting [1] worked out at 15.4%. For the same molecule, under setting [2], the inhibition at 10 µM was 1.2%.

As for `O=c1c(-c2ccc(C(F)(F)F)cc2)c(/C=C/c2ccccc2OCC2CC2)nc2sccn12` [Example 24], the inhibition at 1 µM under setting [1] was determined as 36.3%. The inhibition at 10 µM under setting [2] is 67.4%.

As for `CCCOc1c(/C=C/c2nc3sccn3c(=O)c2-c2ccc(C(F)(F)F)cc2)cccc1OC` [Example 25, 7-[(E)-2-(3-Methoxy-2-propoxyphenyl)-1-ethenyl]-6-[4-(trifluoromethyl)phenyl]-5H-[1,3]thiazolo[3,2-a]pyrimidin-5-one], under setting [1], the inhibition at 1 µM was 70.7% and the half-maximal inhibitory concentration (IC50) is 500 to 1000 nM. Moreover, the inhibition at 10 µM under setting [2] amounted to 89.9%.

For `CCCCOc1c(/C=C/c2nc3sccn3c(=O)c2-c2ccc(C(F)(F)F)cc2)cccc1OC` [Example 26, 7-[(E)-2-(2-Butoxy-3-methoxyphenyl)-1-ethenyl]-6-[4-(trifluoromethyl)phenyl]-5H-[1,3]thiazolo[3,2-a]pyrimidin-5-one], the inhibition at 1 µM under setting [1] was found to be 56.6%. In addition, the inhibition at 10 µM under setting [2] came to 84.5%.

For the molecule `COc1cccc(/C=C/c2nc3sccn3c(=O)c2-c2ccc(C(F)(F)F)cc2)c1OCC(C)C` [Example 27, 7-[(E)-2-(2-Isobutoxy-3-methoxyphenyl)-1-ethenyl]-6-[4-(trifluoromethyl)phenyl]-5H-[1,3]thiazolo[3,2-a]pyrimidin-5-one], under setting [1], the inhibition at 1 µM is 69.6% and the IC50 was under 250 nM. Also, under setting [2], the inhibition at 10 µM worked out at 88%.

`COc1cccc(/C=C/c2nc3sccn3c(=O)c2-c2ccc(C(F)(F)F)cc2)c1OCCC(C)C` [Example 28, 7-[(E)-2-(2-Isopentyloxy-3-methoxyphenyl)-1-ethenyl]-6-[4-(trifluoromethyl)phenyl]-5H-[1,3]thiazolo[3,2-a]pyrimidin-5-one]: the inhibition at 1 µM under setting [1] worked out at 59.7%. For the same molecule, the inhibition at 10 µM under setting [2] is 85.3%.

Consider `COc1cccc(/C=C/c2nc3sccn3c(=O)c2-c2ccc(C(F)(F)F)cc2)c1OCC(C)(C)C` [Example 29, 7-[(E)-2-(3-Methoxy-2-neopentyloxy)phenyl-1-ethenyl]-6-(4-(trifluoromethyl)phenyl)-5H-[1,3]thiazolo[3,2-a]pyrimidin-5-one], for which, under setting [1], the inhibition at 1 µM was determined as 86.5% and the IC50 was under 250 nM. Under setting [2], the inhibition at 10 µM stood at 93.7%.

Consider `COc1cccc(/C=C/c2nc3sccn3c(=O)c2-c2ccc(C(F)(F)F)cc2)c1OCCCC#N` [Example 30], for which, under setting [1], the “Percentage inhibition at 1.0 μM” value is 45.2%. In addition, the “Percentage inhibition at 10.0 μM” value under setting [2] stood at 75.9%.

On to `COCCOc1c(/C=C/c2nc3sccn3c(=O)c2-c2ccc(C(F)(F)F)cc2)cccc1OC` [Example 31, {7-[(E)-2-(2-Methoxyethoxy-3-methoxy)phenyl}vinyl]-6-[4-(trifluoromethyl)phenyl]-5H-[1,3]thiazolo[3,2-a]pyrimidin-5-one], for which, under setting [1], the inhibition at 1 µM stood at 66.9% and the half-inhibitory concentration (IC50) lay in the range of 250 to 500 nM. Moreover, under setting [2], the inhibition at 10 µM was determined as 97.2%.

Turning to `CCOCCOc1c(/C=C/c2nc3sccn3c(=O)c2-c2ccc(C(F)(F)F)cc2)cccc1OC` [Example 32, {7-[(E)-2-(2-Ethoxyethoxy)-3-methoxy)phenyl-1-ethenyl]-6-[4-(trifluoromethyl)phenyl]-5H-[1,3]thiazolo[3,2-a]pyrimidin-5-one], under setting [1], the “Percentage inhibition at 1.0 μM” value came to 89.3% and the IC50 fell in the range of 250 to 500 nM. In addition, under setting [2], the “Percentage inhibition at 10.0 μM” value is on record as 97.7%.

Take `COc1cccc(/C=C/c2nc3sccn3c(=O)c2-c2ccc(C(F)(F)F)cc2)c1OCC1CC1` [Example 33, {7-[(E)-2-(2-Cyclopropylmethoxy)-3-methoxyphenyl]-1-ethenyl]-6-[4-(trifluoromethyl)phenyl]-5H-[1,3]thiazolo[3,2-a]pyrimidin-5-one]: under setting [1], the inhibition at 1 µM is 85.3% and the concentration for half-maximal inhibition (IC50) was under 250 nM. The inhibition at 10 µM under setting [2] is 97.4%.

With `COc1cccc(/C=C/c2nc3sccn3c(=O)c2-c2ccc(C(F)(F)F)cc2)c1OCC1CCC1` [Example 34, 7-[(E)-2-(2-Cyclobutylmethoxy-3-methoxyphenyl)-1-ethenyl]-6-[4-(trifluoromethyl)phenyl]-5H-[1,3]thiazolo[3,2-a]pyrimidin-5-one], under setting [1], the inhibition at 1 µM is 43.1%. Besides, the inhibition at 10 µM under setting [2] was determined as 78.4%.

On to `COc1cccc(/C=C/c2nc3sccn3c(=O)c2-c2ccc(C(F)(F)F)cc2)c1OC1CCCC1` [Example 35, 7-[(E)-2-(2-Cyclopentyloxy-3-methoxyphenyl)-1-ethenyl]-6-[4-(trifluoromethyl)phenyl]-5H-[1,3]thiazolo[3,2-a]pyrimidin-5-one], for which the inhibition at 1 µM under setting [1] was found to be 29.4%. The inhibition at 10 µM under setting [2] was found to be 68.5%.

As to `COc1cccc(/C=C/c2nc3sccn3c(=O)c2-c2ccc(C(F)(F)F)cc2)c1OCc1ccccn1` [Example 36], the “Percentage inhibition at 1.0 μM” value under setting [1] was 11.2%. In addition, under setting [2], the “Percentage inhibition at 10.0 μM” value was 0.0%.

`COc1ccc(/C=C/c2nc3sccn3c(=O)c2-c2ccc(C(F)(F)F)cc2)cc1OCC1CC1` [Example 37, 7-[(E)-2-(3-Cyclopropylmethoxy-4-methoxyphenyl)-1-ethenyl]-6-[4-(trifluoromethyl)-phenyl]-5H-[1,3]thiazolo[3,2-a]pyrimidin-5-one]: the inhibition at 1 µM under setting [1] amounted to 39.6%. Further, the inhibition at 10 µM under setting [2] was determined as 88.1%.

`COc1cc(/C=C/c2nc3sccn3c(=O)c2-c2ccc(C(F)(F)F)cc2)ccc1OCC1CC1` [Example 38, 7-[(E)-2-(4-Cyclopropylmethoxy-3-methoxyphenyl)-1-ethenyl]-6-[4-(trifluoromethyl)-phenyl]-5H-[1,3]thiazolo[3,2-a]pyrimidin-5-one]: the inhibition at 1 µM under setting [1] was found to be 28.6%. The inhibition at 10 µM under setting [2] is 50.2%.

With `O=c1c(-c2ccc(C(F)(F)F)cc2)c(/C=C/c2cccnc2)nc2sccn12` [Example 39, 7-[(E)-2-Pyridin-3-ylvinyl]-6-[4-(trifluoromethyl)phenyl]-5H-[1,3]thiazolo[3,2-a]pyrimidin-5-one], the inhibition at 1 µM under setting [1] is 4.11%. For the same molecule, the inhibition at 10 µM under setting [2] was 15.2%.

`COc1cccc(/C=C/c2nc3sccn3c(=O)c2-c2cccc(C(F)(F)F)c2)c1OCC1CC1` [Example 40, 7-[(E)-2-(2-Cyclopropylmethoxy-3-methoxyphenyl)-1-ethenyl]-6-[3-(trifluoromethyl)phenyl]-5H-[1,3]thiazolo[3,2-a]pyrimidin-5-one]: under setting [1], the inhibition at 1 µM is 4.6%. Further, the inhibition at 10 µM under setting [2] is 31.3%.

As usually defined, the inhibition is the percentage by which the read-out fell short of the control. As usually defined, the IC50 is the midpoint of a concentration-inhibition curve.
